Experimental data reported in PMC9763021, “Comprehensive Assessment of Biomolecular Interactions of Morpholine-Based Mixed Ligand Cu(II) and Zn(II) Complexes of 2,2′-Bipyridine as Potential Anticancer and SARS-CoV-2 Agents: A Synergistic Experimental and Structure-Based Virtual Screening” (Bioinorganic Chemistry and Applications, 2022).

How the values were obtained:
bovine serum albumin = bovine serum albumin (Bos taurus, UniProt P02769); test: BSA binding by UV-visible absorption titration; details: for Chromism (% H), hyperchromism: BSA 278 nm; for Δλ (nm), blue shift of BSA band: Tris-HCl, 25 μM BSA; for ∆Gb°: –RT lnKapp, 298 K
bovine serum albumin, sequence (P02769 25-607): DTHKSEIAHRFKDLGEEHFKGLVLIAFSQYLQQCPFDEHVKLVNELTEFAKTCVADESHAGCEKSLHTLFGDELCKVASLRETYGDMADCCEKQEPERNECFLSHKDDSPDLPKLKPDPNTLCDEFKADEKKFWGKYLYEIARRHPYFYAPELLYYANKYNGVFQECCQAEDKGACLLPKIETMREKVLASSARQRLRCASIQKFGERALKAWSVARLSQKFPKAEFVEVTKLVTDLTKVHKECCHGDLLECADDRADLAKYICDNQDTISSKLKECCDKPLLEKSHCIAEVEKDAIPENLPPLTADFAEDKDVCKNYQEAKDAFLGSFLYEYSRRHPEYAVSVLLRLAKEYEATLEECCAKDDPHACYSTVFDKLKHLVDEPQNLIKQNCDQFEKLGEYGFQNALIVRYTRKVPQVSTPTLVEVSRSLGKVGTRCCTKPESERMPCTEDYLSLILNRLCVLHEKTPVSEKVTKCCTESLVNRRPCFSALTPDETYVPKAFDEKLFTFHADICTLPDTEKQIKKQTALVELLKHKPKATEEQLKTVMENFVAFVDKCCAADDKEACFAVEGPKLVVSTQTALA
Experimental: In the presence of Tris-HCl buffer solution, the UV-vis absorption titrations were done with a 25 μM concentration of BSA at room temperature. While the sample concentrations (0–25 μM) increased in the same BSA concentration solution, the change in the absorption band at 278 nm was continuously noted.
The UV-visible spectral titration properties are imperatively supported to scrutinize the structural changes and the nature of quenched biomolecules by the chemical substance. The titration was executed for BSA in the presence and absence of substances in Tris-HCl solution (Figure 7 and Table 7). Two distinctive adsorption peaks can be noticed in the UV-visible spectra of free BSA: one at 210 nm, which is connected to the polypeptide backbone, and the other at 280 nm, which is responsible for Trp, Tyr, and Phe aromatic amino acid residues. BSA's interaction with the test substances is designated by alterations in the electronic absorption spectra. Quenching typically occurs in either a static or dynamic phase. The static quenching mechanism only involves the synthesis of a bovine serum albumin-compound in the ground state, when a dynamic quenching mechanism involves the temporary presence of the excited state due to diffusion, which brings the BSA and the compound into close proximity. In addition, the dynamic quenching mechanism has no outcome on the electronic absorption spectrum; it only affects the excited state. Furthermore, both types have different temperature dependences; for example, in dynamic quenching, the quenching constants are meant to rise with temperature. Conversely, raised temperatures in static quenching favour decreased stability and lower quenching constants. […] It also recommended that bovine serum albumin and the test compounds in the ground state interact statically. In this case, the evaluated hyperchromism was found in the range of 47.79 to 65.62%. […] The Benesi–Hildebrand (37) is supported to evaluate the Kb values (Table 7). The Kapp findings for all substances were estimated from the finding of the intercept divided slope in the linear regression plot of [(A∞ − A0)/(Ax − A0)] vs. {1/[compound]} M^−1(Figure S34). The evaluated Kb findings for all test substances were in the subsequent order: (1a) > (2a) > (HL) with ∆Gb° values from –22.1246 to –28.0038 kJ·mol^−1. Complex (1a) is also clearly shown to have the greatest spontaneous binding efficacy with BSA among others.
Hyperchromism%=(A∞ − A0)/A∞ × 100; A0 is denoted as absorbance of BSA alone at 278 nm, A∞ is represented as absorbance of the fully bound form of BSA with complex or ligand, and Ax is absorbance of BSA in the addition of different concentration of complex or ligand, Gibb's free energy change ΔGb°=–RT lnKapp (where R = […] and T = 298 K); Kapp is denoted as apparent binding constant evaluated from the UV-vis absorption spectral titration.(37) A∞−A0/AX−A0=1/KbCompound+1, where ∆Amax = (A∞ − A0), ∆A = (Ax − A0), A0, Ax, and A∞ are denoted as the absorbance of free BSA, the absorbance of BSA in the increment concentrations of the compound, and the absorbance value of the fully bound form of bovine serum albumin with substance, respectively. Error limit ±2.5%.

Aspergillus niger = test: Agar disc diffusion, strain H; type: cell-based; parameters: (inhibition %): concentration or dose not given beside the values; details: for diameter of the clear zone inhibition: control = 6 mm
Experimental: In-vitro antimicrobial properties were evaluated for all samples by the agar disc diffusion method towards different fungal and bacterial strains. Additionally, the reported inhibition zone values were comparatively analyzed with the standard antifungal drugs ketoconazole and amphotericin B as well as the standard antibiotic medications streptomycin and amikacin.
The current research has a curious focus on the in vitro antimicrobial properties of biological systems because these studies are crucial for developing effective antibacterial and antifungal medications. […] It can also be spelled out based on the chelation theory proposed by Overtone and Tweedy. Chelation theory points out that the partial exchanging of the positive charge of the metal center with donor moieties, and overlap of the ligand orbitals will reduce the greater degree of the metal ion's polarity, which ultimately rises the delocalization of π and d electrons over the full chelated ring system. By raising the size of the metal ion due to the retarding of polarization, chelation may also enhance the complexes' lipophilic characteristics, which further stimulate the lipid membrane permeability and break down the bacteria' enzymes responsible for cell wall formation, therefore slowing down the regular cell processes. By preventing the production of cell walls/proteins/DNA, including by obstructing folate metabolism and the cytoplasmic membrane, antimicrobial drugs frequently either fully eliminate microbes or only prevent their cell growth. Additionally, the samples' mode of action may be employed in disrupting the cell's respiration process by forming an H-bond during the morpholine-fused iminic group coordinated with the active metal center of its components, inhibiting proliferation of the cell. […] The difference in the antimicrobial efficacy of some of the compounds towards various microorganisms influences on the impermeability of the cells of the germs or the diversity of ribosomes of the microbes. The % of the inhibition of all substances is estimated from (45) (Table 9).
(A, B, C, D, and E are represented as gram negative bacteria species Escherichia coli, Salmonella enteric serovar typhi, Salmonella enteric serovar typhi, Pseudomonas aeruginosa, and Shigella flexneri, respectively. F & G are denoted as gram positive bacteria species Staphylococcus aureus and Bacillus cereus. H, I, and J are represented as fungal strains Aspergillus niger, Candida albicans, and Mucor indicus. Standard drugs for bacterial strains: Amikacin & Streptomycin Standard drugs for fungal strains: Ketoconazole and Amphotericin B. [Control (DMSO) = 6 mm].(44) Inhibition %=T–C/T×100, where T and C are represented as the diameter of microbial growth of the sample plates and the control plate (6 mm), respectively. Error limits ±2.5–5.0% (P ≤ 0.05).

SMILES	Binding constant Kapp by BH method (bovine serum albumin) [M⁻¹]	Chromism (% H), hyperchromism (bovine serum albumin) [%]	Δλ (nm), blue shift of BSA band (bovine serum albumin) [nm]	∆Gb° (bovine serum albumin) [kcal/mol]	(inhibition %) (Aspergillus niger) [%]	diameter of the clear zone inhibition (Aspergillus niger) [mm]	Kd (bovine serum albumin) [µM]
[O-]c1ccccc1N=Cc1ccc(N2CCOCC2)cc1.[O-]c1ccccc1N=Cc1ccc(N2CCOCC2)cc1.[Zn+2].c1ccc(-c2ccccn2)nc1 [(2a), [Zn(L)2(bpy)]]	44355	55.04	04	-6.33389	33	09	
Oc1ccccc1N=Cc1ccc(N2CCOCC2)cc1 [(HL), 2-(4-morpholinobenzylideneamino)phenol]		47.79	02	-5.28791	40	10	132
[Cu+2].[O-]c1ccccc1N=Cc1ccc(N2CCOCC2)cc1.[O-]c1ccccc1N=Cc1ccc(N2CCOCC2)cc1.c1ccc(-c2ccccn2)nc1 [(1a), [Cu(L)2(bpy)]]	81059	65.62	05	-6.69307	45	11	
